Here are results for 13 compounds from patent US9828379B2 (priority 2013, dated 2017).

Assay [1] deals with T1, MAGL (Mus musculus, UniProt O35678).
T1 sequence (O35678 1-303): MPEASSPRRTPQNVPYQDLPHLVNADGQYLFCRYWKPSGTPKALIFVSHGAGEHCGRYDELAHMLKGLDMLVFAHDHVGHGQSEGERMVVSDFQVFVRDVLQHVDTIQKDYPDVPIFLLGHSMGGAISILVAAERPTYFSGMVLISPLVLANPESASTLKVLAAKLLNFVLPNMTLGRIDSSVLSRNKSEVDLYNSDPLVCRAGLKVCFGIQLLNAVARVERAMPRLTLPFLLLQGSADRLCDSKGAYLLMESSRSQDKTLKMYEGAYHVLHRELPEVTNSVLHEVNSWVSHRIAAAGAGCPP
Description: biochemical. The following applies: mouse; in vitro competitive ABPP; read-out: Mouse (IC50 value, nM) MAGL.

For assay [2], the target named is T2, FAAH (Mus musculus, UniProt O08914).
T2 sequence (O08914 1-579): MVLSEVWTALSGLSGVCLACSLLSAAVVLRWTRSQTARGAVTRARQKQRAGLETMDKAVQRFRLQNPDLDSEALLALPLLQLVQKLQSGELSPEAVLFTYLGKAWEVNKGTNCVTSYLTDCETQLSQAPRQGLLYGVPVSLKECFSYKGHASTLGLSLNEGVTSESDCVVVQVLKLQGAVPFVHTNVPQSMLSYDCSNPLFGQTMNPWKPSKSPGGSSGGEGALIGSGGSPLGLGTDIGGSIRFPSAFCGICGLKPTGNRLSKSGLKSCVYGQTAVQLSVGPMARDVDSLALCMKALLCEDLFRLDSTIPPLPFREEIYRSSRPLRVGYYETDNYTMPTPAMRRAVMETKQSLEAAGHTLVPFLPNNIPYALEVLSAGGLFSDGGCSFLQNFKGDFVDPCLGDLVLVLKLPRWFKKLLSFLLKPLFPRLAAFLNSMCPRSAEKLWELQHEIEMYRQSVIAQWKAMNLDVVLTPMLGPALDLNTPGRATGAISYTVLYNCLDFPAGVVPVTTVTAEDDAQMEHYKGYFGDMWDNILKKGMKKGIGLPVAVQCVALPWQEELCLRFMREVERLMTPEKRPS
Description: biochemical. The following applies: in vitro competitive ABPP.

Assay [3] has as its target T1, MAGL. Description: In vitro competitive activity-based protein profiling (Table 2, % inhibition at 1 μM). Type of assay: biochemical. Particulars: read-out: % Inhibition at 1 μM MAGL. The procedure: After 30 min, FP—Rh (1.0 μL, 50 μM in DMSO) was added and the mixture was incubated for another 30 min at 37° C. Reactions were quenched with SDS loading buffer (50 μL-4×) and run on SDS-PAGE.
Cell lysates were diluted with mock proteomes for use in competitive ABPP experiments.

The target of assay [4] is T3, ABHD6 (Mus musculus, UniProt Q8R2Y0).
T3 sequence (Q8R2Y0 1-336): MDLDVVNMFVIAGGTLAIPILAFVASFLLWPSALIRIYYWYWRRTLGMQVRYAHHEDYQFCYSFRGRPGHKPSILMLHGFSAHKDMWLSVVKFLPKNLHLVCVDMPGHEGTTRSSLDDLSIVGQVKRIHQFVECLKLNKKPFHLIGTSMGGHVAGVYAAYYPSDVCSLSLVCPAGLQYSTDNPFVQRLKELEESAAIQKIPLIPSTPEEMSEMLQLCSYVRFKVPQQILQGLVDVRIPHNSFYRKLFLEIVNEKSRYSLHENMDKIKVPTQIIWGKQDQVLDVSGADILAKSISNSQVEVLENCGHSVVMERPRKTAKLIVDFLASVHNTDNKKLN
The assay is described as follows: biochemical. Particulars: in vitro competitive ABPP.

Assay [5] has as its target T2, FAAH. The assay is described as follows: In vitro competitive activity-based protein profiling (Table 2, % inhibition at 1 μM). The class given is biochemical. Particulars: read-out: % Inhibition at 1 μM FAAH.
Assay [6] deals with T3, ABHD6. Described as above. Type of assay: biochemical. The following applies: read-out: % Inhibition at 1 μM ABHD6.

In general, IC50 refers to the midpoint of a concentration-inhibition curve. What is called inhibition is the share of the control response that was lost under treatment. As to `Cc1c(CN2CC3CN(C(=O)OC(C(F)(F)F)C(F)(F)F)CC3C2)cccc1C(=O)N1CCCCC1` (stereo not drawn) [Example 187, 1,1,1,3,3,3-hexafluoropropan-2-yl 5-(2-methyl-3-(piperidine-1-carbonyl)benzyl)hexahydropyrrolo[3,4-c]pyrrole-2(1H)-carboxylate], the half-inhibitory concentration (IC50) is less than 100 nM at MAGL [1], 1000 to 10000 nM at FAAH [2] and 1000 to 10000 nM at ABHD6 [4]. Further, the inhibition at 1 µM on MAGL [3] is more than 75%; on FAAH [5], less than 25%; at ABHD6 [6], 25 to 75%.

Consider `O=C(OC(C(F)(F)F)C(F)(F)F)N1CC2CN(Cc3cc(CN4CCOCC4)cc(OC(F)(F)F)c3)CC2C1` (stereo not drawn) [Example 183, 1,1,1,3,3,3-hexafluoropropan-2-yl 5-(3-(morpholinomethyl)-5-(trifluoromethoxy)benzyl)hexahydropyrrolo[3,4-c]pyrrole-2(1H)-carboxylate], for which the IC50 on MAGL [1] was 100 to 1000 nM; on FAAH [2], 1000 to 10000 nM; on ABHD6 [4], 1000 to 10000 nM. In addition, the inhibition at 1 µM was more than 75% at MAGL [3], less than 25% at FAAH [5] and less than 25% on ABHD6 [6].

Consider `O=C(ON1C(=O)CCC1=O)N1CC2CN(Cc3ccc(N4CCOCC4)cc3OC(F)(F)F)CC2C1` (stereo not drawn) [Example 86, 2,5-Dioxopyrrolidin-1-yl 5-[[4-(morpholin-4-yl)-2-(trifluoromethoxy)phenyl]methyl]-octahydropyrrolo[3,4-c]pyrrole-2-carboxylate], for which the results for the IC50 at MAGL [1], on FAAH [2] and at ABHD6 [4] were 100 to 1000 nM, 1000 to 10000 nM and 1000 to 10000 nM, respectively. The inhibition at 1 µM on MAGL [3] was more than 75%; on FAAH [5], 25 to 75%; on ABHD6 [6], less than 25%.

For `Cc1cccc(CN2CC3CN(C(=O)OC(C(F)(F)F)C(F)(F)F)CC3C2)c1N1CCN(C)CC1` (stereo not drawn) [Example 147, 1,1,1,3,3,3-hexafluoropropan-2-yl 5-[[3-methyl-2-(4-methylpiperazin-1-yl)phenyl]methyl]-octahydropyrrolo[3,4-c]pyrrole-2-carboxylate], the IC50 on MAGL [1] was 100 to 1000 nM; at FAAH [2], more than 10000 nM; at ABHD6 [4], more than 10000 nM. Besides, the values for the inhibition at 1 µM at MAGL [3], at FAAH [5] and at ABHD6 [6] were more than 75%, less than 25% and less than 25%, respectively.

`CC(=O)N1CCN(c2ccc(CN3CC4CN(C(=O)OC(C(F)(F)F)C(F)(F)F)CC4C3)c(F)c2)CC1` (stereo not drawn) [Example 26, 1,1,1,3,3,3-Hexafluoropropan-2-yl 5-[[4-(4-acetylpiperazin-1-yl)-2-fluorophenyl]methyl]-octahydropyrrolo[3,4-c]pyrrole-2-carboxylate]: the values for the IC50 on MAGL [1], at FAAH [2] and on ABHD6 [4] were 100 to 1000 nM, 1000 to 10000 nM and 1000 to 10000 nM, respectively. Further, the inhibition at 1 µM at MAGL [3] was more than 75%; at FAAH [5], less than 25%; at ABHD6 [6], 25 to 75%.

Consider `O=C(OC(C(F)(F)F)C(F)(F)F)N1CC2CN(Cc3ccc(Cl)cc3N3CCCC3)CC2C1` (stereo not drawn) [Example 19, 1,1,1,3,3,3-Hexafluoropropan-2-yl 5-[[4-chloro-2-(pyrrolidin-1-yl)phenyl]methyl]-octahydropyrrolo[3,4-c]pyrrole-2-carboxylate], for which the IC50 on MAGL [1] is less than 100 nM; on FAAH [2], 1000 to 10000 nM; at ABHD6 [4], 1000 to 10000 nM. Moreover, the inhibition at 1 µM on MAGL [3] was more than 75%; on FAAH [5], 25 to 75%; at ABHD6 [6], less than 25%.

With `O=C(OC(C(F)(F)F)C(F)(F)F)N1CC2CN(Cc3ccc(C(=O)N4CCCCC4)c(OC(F)(F)F)c3)CC2C1` (stereo not drawn) [Example 192, 1,1,1,3,3,3-hexafluoropropan-2-yl 5-(4-(piperidine-1-carbonyl)-3-(trifluoromethoxy)benzyl)hexahydropyrrolo[3,4-c]pyrrole-2(1H)-carboxylate], the IC50 on MAGL [1] was 100 to 1000 nM; on FAAH [2] it was more than 10000 nM; on ABHD6 [4], 1000 to 10000 nM. Moreover, the inhibition at 1 µM was more than 75% at MAGL [3], less than 25% at FAAH [5] and 25 to 75% on ABHD6 [6].

Consider `O=C(OC(C(F)(F)F)C(F)(F)F)N1CC2CN(Cc3ccc(Cl)cc3N3CCn4ccnc4C3)CC2C1` (stereo not drawn) [Example 33, 1,1,1,3,3,3-Hexafluoropropan-2-yl 5-[(4-chloro-2-[5H,6H,7H,8H-imidazo[1,2-a]pyrazin-7-yl]phenyl)methyl]-octahydropyrrolo[3,4-c]pyrrole-2-carboxylate], for which the IC50 is less than 100 nM on MAGL [1], 1000 to 10000 nM on FAAH [2] and 1000 to 10000 nM on ABHD6 [4]. For the same compound, the inhibition at 1 µM is more than 75% at MAGL [3], 25 to 75% at FAAH [5] and 25 to 75% at ABHD6 [6].

Take `O=C(OC(C(F)(F)F)C(F)(F)F)N1CC2CN(Cc3ccc(N4CCOCC4)cc3C(F)F)CC2C1` (stereo not drawn) [Example 200, 1,1,1,3,3,3-hexafluoropropan-2-yl 5-(2-(difluoromethyl)-4-morpholinobenzyl)hexahydropyrrolo[3,4-c]pyrrole-2(1H)-carboxylate]: the concentration for half-maximal inhibition (IC50) is 100 to 1000 nM on MAGL [1], 1000 to 10000 nM on FAAH [2] and 1000 to 10000 nM at ABHD6 [4]. Moreover, the results for the inhibition at 1 µM at MAGL [3], at FAAH [5] and at ABHD6 [6] were more than 75%, 25 to 75% and less than 25%, respectively.

On to `O=C(OC(C(F)(F)F)C(F)(F)F)N1CC2CN(Cc3ccc(N4CCOCC4)cc3OC(F)(F)F)CC2C1` (stereo not drawn) [Example 11, 1,1,1,3,3,3-Hexafluoropropan-2-yl 5-[[4-(morpholin-4-yl)-2-(trifluoromethoxy)phenyl]methyl]-octahydropyrrolo[3,4-c]pyrrole-2-carboxylate], for which the values for the IC50 at MAGL [1], on FAAH [2] and on ABHD6 [4] were less than 100 nM, 100 to 1000 nM and 100 to 1000 nM, respectively. For the same compound, the inhibition at 1 µM on MAGL [3] was more than 75%; on FAAH [5], more than 75%; at ABHD6 [6] it was less than 25%.

Take `O=C(OC(C(F)(F)F)C(F)(F)F)N1CC2CN(Cc3ccc(N4CCOCC4)cc3Cl)CC2C1` (stereo not drawn) [Example 2, 1,1,1,3,3,3-Hexafluoropropan-2-yl 5-(2-chloro-4-morpholinobenzyl)hexahydropyrrolo[3,4-c]pyrrole-2(1H)-carboxylate]: the concentration for half-maximal inhibition (IC50) at MAGL [1] is less than 100 nM; on FAAH [2], 100 to 1000 nM; at ABHD6 [4] it was 1000 to 10000 nM. The inhibition at 1 µM on MAGL [3] was more than 75%; at FAAH [5], 25 to 75%; on ABHD6 [6], less than 25%.

For the compound `O=C(OC(C(F)(F)F)C(F)(F)F)N1CC2CN(Cc3ccc(N4CCCCC4)cc3C(F)F)CC2C1` (stereo not drawn) [Example 201, 1,1,1,3,3,3-hexafluoropropan-2-yl 5-(2-(difluoromethyl)-4-(piperidin-1-yl)benzyl)hexahydropyrrolo[3,4-c]pyrrole-2(1H)-carboxylate], the IC50 on MAGL [1] was in the range of 100 to 1000 nM; on FAAH [2] it was 1000 to 10000 nM; on ABHD6 [4], 1000 to 10000 nM. The inhibition at 1 µM is more than 75% on MAGL [3], 25 to 75% on FAAH [5] and less than 25% at ABHD6 [6].

In the case of `Cc1ccc(CN2CC3CN(C(=O)OC(C(F)(F)F)C(F)(F)F)CC3C2)cc1-c1ccccc1` (stereo not drawn) [Example 206, 1,1,1,3,3,3-hexafluoropropan-2-yl 5-((6-methyl-[1,1′-biphenyl]-3-yl)methyl)hexahydropyrrolo[3,4-c]pyrrole-2(1H)-carboxylate], the IC50 on MAGL [1] was 100 to 1000 nM; at FAAH [2] it was 1000 to 10000 nM; on ABHD6 [4], 1000 to 10000 nM. The inhibition at 1 µM on MAGL [3] is more than 75%; at FAAH [5], 25 to 75%; on ABHD6 [6] it was 25 to 75%.
